# Data: US8569313B2, “Meta-substituted phenyl sulfonyl amides of secondary amino acid amides, the production thereof, and use thereof as matriptase inhibitors” (The Medicines Company (Leipzig) GmbH, priority 2007, dated 2013)
# Molecular target: matriptase (Homo sapiens (Human), UniProt Q9Y5Y6)
# Assay: Determination of the matriptase inhibition (chromogenic substrate CH3SO2-D-Cha-Gly-Arg-pNA, Dixon Ki)
# Type: biochemical
# Settings: 25° C., pH 8.0; means of at least two determinations
# Procedure: Determination of the Matriptase Inhibition
# To determine the inhibition effect, 200 μl Tris buffer (inhibitor contains 0.05 M, 0.154 M NaCl, 5% ethanol, pH 8.0), 25 μl substrate (CH3SO2-D-Cha-Gly-Arg-pNA; 2 and 1 mM) and 50 μl matriptase (0.5 μg/ml) were incubated at 25° C. After 3 min the reaction was halted through the addition of 25 μl acetic acid (50%) and the Absorption determined at 405 nm by means of a Microplate Reader (Multiscan Ascent from the company Thermo Electron Corporation). The Ki values were calculated according to Dixon (Biochem. J. 55, 170-171, 1953) through linear regression by means of a computer program. The Ki-values are the means of at least two determinations.
# Ki value for the inhibition of matriptase in nM (n.d.=not determined)
# Chain of matriptase (Q9Y5Y6 whole entry): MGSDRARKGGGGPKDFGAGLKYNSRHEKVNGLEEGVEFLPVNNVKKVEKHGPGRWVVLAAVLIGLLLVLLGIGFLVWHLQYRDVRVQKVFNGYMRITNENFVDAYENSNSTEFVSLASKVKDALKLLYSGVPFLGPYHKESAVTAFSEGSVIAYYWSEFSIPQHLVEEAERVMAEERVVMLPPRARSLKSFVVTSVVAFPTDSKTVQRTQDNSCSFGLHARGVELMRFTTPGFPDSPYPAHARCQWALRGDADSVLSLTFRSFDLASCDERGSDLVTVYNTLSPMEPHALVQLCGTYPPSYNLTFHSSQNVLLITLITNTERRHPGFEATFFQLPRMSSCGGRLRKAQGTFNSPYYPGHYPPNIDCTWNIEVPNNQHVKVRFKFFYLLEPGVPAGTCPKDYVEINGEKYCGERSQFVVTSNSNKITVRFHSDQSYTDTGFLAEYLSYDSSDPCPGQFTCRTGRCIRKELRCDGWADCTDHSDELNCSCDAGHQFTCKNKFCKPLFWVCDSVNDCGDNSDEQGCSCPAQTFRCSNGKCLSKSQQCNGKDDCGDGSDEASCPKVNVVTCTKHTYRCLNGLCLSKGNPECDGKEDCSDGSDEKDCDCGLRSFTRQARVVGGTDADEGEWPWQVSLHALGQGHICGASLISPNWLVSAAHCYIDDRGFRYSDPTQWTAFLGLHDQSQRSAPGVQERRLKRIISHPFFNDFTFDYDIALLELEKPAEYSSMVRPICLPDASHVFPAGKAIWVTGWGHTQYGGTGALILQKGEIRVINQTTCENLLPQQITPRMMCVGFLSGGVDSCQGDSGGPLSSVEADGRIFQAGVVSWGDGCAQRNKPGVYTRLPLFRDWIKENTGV
row,Ki [nM],Compound
1,5.4,"COc1ccc(-c2cccc(S(=O)(=O)NC(Cc3cccc(C(=N)N)c3)C(=O)N3CCC(CCN)CC3)c2)cc1OC (stereo not drawn) [Inhibitor 1, 3-(3,4-dimethoxyphenyl)phenyl sulfonyl-d/l-Phe(3-Am)-4-(2-aminoethyl)piperidide]"
2,100,N=C(N)c1cccc(CC(NS(=O)(=O)c2cccc(-c3ccccc3)c2)C(=O)N2CCC(CCN)CC2)c1 (stereo not drawn) [Inhibitor 2]
3,6,COc1ccc(-c2cccc(S(=O)(=O)NC(Cc3cccc(C(=N)N)c3)C(=O)N3CCC(CCN)CC3)c2)cc1 (stereo not drawn) [Inhibitor 3]
4,5.4,CCOc1ccc(-c2cccc(S(=O)(=O)NC(Cc3cccc(C(=N)N)c3)C(=O)N3CCC(CCN)CC3)c2)cc1 (stereo not drawn) [Inhibitor 4]
5,2.5,CCc1ccc(-c2cccc(S(=O)(=O)NC(Cc3cccc(C(=N)N)c3)C(=O)N3CCC(CCN)CC3)c2)cc1 (stereo not drawn) [Inhibitor 5]
6,12,CC(C)Oc1ccc(-c2cccc(S(=O)(=O)NC(Cc3cccc(C(=N)N)c3)C(=O)N3CCC(CCN)CC3)c2)cc1 (stereo not drawn) [Inhibitor 6]
7,26,N=C(N)c1cccc(CC(NS(=O)(=O)c2cccc(-c3ccc(Cl)cc3)c2)C(=O)N2CCC(CCN)CC2)c1 (stereo not drawn) [Inhibitor 7]
8,91,N=C(N)c1cccc(CC(NS(=O)(=O)c2cccc(-c3cccc(Cl)c3)c2)C(=O)N2CCC(CCN)CC2)c1 (stereo not drawn) [Inhibitor 8]
9,29,N=C(N)c1cccc(CC(NS(=O)(=O)c2cccc(-c3ccccc3Cl)c2)C(=O)N2CCC(CCN)CC2)c1 (stereo not drawn) [Inhibitor 9]
10,60,N=C(N)c1cccc(CC(NS(=O)(=O)c2cccc(-c3ccncc3)c2)C(=O)N2CCC(CCN)CC2)c1 (stereo not drawn) [Inhibitor 10]
11,47,N=C(N)c1cccc(CC(NS(=O)(=O)c2cccc(-c3cccnc3)c2)C(=O)N2CCC(CCN)CC2)c1 (stereo not drawn) [Inhibitor 11]
12,28,Cc1nccc(-c2cccc(S(=O)(=O)N[C@@H](Cc3cccc(C(=N)N)c3)C(=O)N3CCC(CCN)CC3)c2)n1 [Inhibitor 12]
13,13,N=C(N)c1cccc(CC(NS(=O)(=O)c2cccc(-c3ccc4[nH]ccc4c3)c2)C(=O)N2CCC(CCN)CC2)c1 (stereo not drawn) [Inhibitor 13]
14,4.2,N=C(N)c1cccc(CC(NS(=O)(=O)c2cccc(-c3ccc(N)nc3)c2)C(=O)N2CCC(CCN)CC2)c1 (stereo not drawn) [Inhibitor 14]
15,0.069,N=C(N)c1cccc(CC(NS(=O)(=O)c2cccc(C3CCC(N)=NC3)c2)C(=O)N2CCC(CCN)CC2)c1 (stereo not drawn) [Inhibitor 15]
16,0.74,"N=C(N)c1cccc(C[C@H](NS(=O)(=O)c2cccc(CCCCN)c2)C(=O)N2CCC(CCN)CC2)c1 [Inhibitor 16, 3-(1-aminobutyl)-phenyl sulfonyl-Phe(3-Amidino)-4-(2-aminoethyl)piperidide]"
17,8.1,CCOc1ccc(-c2cccc(S(=O)(=O)N[C@@H](Cc3cccc(C(=N)N)c3)C(=O)N3CCC(CCCC(=O)NC)CC3)c2)cc1 [Inhibitor 18]
18,24.5,CCc1ccc(-c2cccc(S(=O)(=O)N[C@@H](Cc3cccc(C(=N)N)c3)C(=O)N3CCC(CCCC(=O)NC)CC3)c2)cc1 [Inhibitor 19]
19,24000,CCc1ccc(-c2cccc(S(=O)(=O)N[C@@H](Cc3cccc(/C(N)=N\O)c3)C(=O)N3CCC(CCCC(=O)NC)CC3)c2)cc1 [Inhibitor 33]
20,145,COc1ccc(-c2cccc(S(=O)(=O)NC(Cc3cccc(CN)c3)C(=O)N3CCC(CCN)CC3)c2)cc1 (stereo not drawn) [Inhibitor 35]
21,117,N=C(N)c1cccc(C[C@H](NS(=O)(=O)c2cccc(NC(=O)CCO)c2)C(=O)N2CCC(CCN)CC2)c1 [Inhibitor 37]
22,1.7,N=C(N)c1cccc(C[C@H](NS(=O)(=O)c2cccc(NC(=O)C3CNC3)c2)C(=O)N2CCC(CCN)CC2)c1 [Inhibitor 40]
23,87,CNC(=O)CCCC1CCN(C(=O)[C@H](Cc2cccc(C(=N)N)c2)NS(=O)(=O)c2cccc(-c3ccc(C(C)(C)C)cc3)c2)CC1 [Inhibitor 41]
24,23.5,CNC(=O)CCCC1CCN(C(=O)[C@H](Cc2cccc(C(=N)N)c2)NS(=O)(=O)c2cccc(-c3ccc(C(C)C)cc3)c2)CC1 [Inhibitor 44]
25,11,CNC(=O)CCCC1CCN(C(=O)[C@H](Cc2cccc(C(=N)N)c2)NS(=O)(=O)c2cccc(-c3ccc(N)nc3)c2)CC1 [Inhibitor 46]

# The next lines start with the compound.
row,Compound,Ki [nM]
1,"CNC(=O)CCCC1CCN(C(=O)[C@H](Cc2cccc(C(=N)N)c2)NS(=O)(=O)c2cccc(NC(=O)CCN)c2)CC1 [Inhibitor 17, N-(3-β-Ala)amidophenyl sulfonyl-Phe(3-Am)-piperidine buteryl-N-methylamide]",6.3
2,COC(=O)CCCC1CCN(C(=O)[C@H](Cc2cccc(C(=N)N)c2)NS(=O)(=O)c2cccc(NC(=O)CCN)c2)CC1 [Inhibitor 20],6.1
3,N=C(N)c1cccc(C[C@H](NS(=O)(=O)c2cccc(NC(=O)CCN)c2)C(=O)N2CCC(CCCC(N)=O)CC2)c1 [Inhibitor 21],11.8
4,N=C(N)c1cccc(C[C@H](NS(=O)(=O)c2cccc(NC(=O)CCN)c2)C(=O)N2CCC(CCCC(=O)O)CC2)c1 [Inhibitor 22],255
5,N=C(N)c1cccc(C[C@H](NS(=O)(=O)c2cccc(NC(=O)CCN)c2)C(=O)N2CCC(C(N)=O)CC2)c1 [Inhibitor 23],12.1
6,N=C(N)c1cccc(C[C@H](NS(=O)(=O)c2cccc(NC(=O)CCN)c2)C(=O)N2CCCC(C(N)=O)C2)c1 (stereo partly drawn) [Inhibitor 24],30.5
7,N=C(N)c1cccc(C[C@H](NS(=O)(=O)c2cccc(NC(=O)CCN)c2)C(=O)N2CCN(C(=O)OCc3ccccc3)CC2)c1 [Inhibitor 26],6.1
8,N=C(N)c1cccc(C[C@H](NS(=O)(=O)c2cccc(NC(=O)CCN)c2)C(=O)N2CCNCC2)c1 [Inhibitor 27],36
9,N=C(N)c1cccc(C[C@H](NS(=O)(=O)c2cccc(NC(=O)CCN)c2)C(=O)N2CCCCC2)c1 [Inhibitor 28],32
10,CNC(=O)CCCC1CCN(C(=O)C(Cc2cccc(C(=N)N)c2)NS(=O)(=O)c2cccc(-n3ncccc3=O)c2)CC1 (stereo not drawn) [Inhibitor 29],98
11,CNC(=O)CCCC1CCN(C(=O)[C@H](Cc2cccc(C(=N)N)c2)NS(=O)(=O)c2cccc(N3CCCCC3=O)c2)CC1 [Inhibitor 30],31
12,"NCCC(=O)Nc1cccc(S(=O)(=O)N[C@@H](Cc2cccc(CN)c2)C(=O)N2CCC(CCN)CC2)c1 [Inhibitor 34, H-βAla-3-NH-phenyl sulfonyl-Phe(3-Ame)-(2-aminoethyl)piperidide]",56
13,NCCC(=O)Nc1cccc(S(=O)(=O)N[C@@H](Cc2cccc(CN)c2)C(=O)N2CCN(C(=O)OCc3ccccc3)CC2)c1 [Inhibitor 36],44.5
14,CNC(=O)CCCC1CCN(C(=O)[C@H](Cc2cccc(C(=N)N)c2)NS(=O)(=O)c2cccc(NC(=O)C3CNC3)c2)CC1 [Inhibitor 38],16
15,CNC(=O)CCCC1CCN(C(=O)[C@H](Cc2cccc(C(=N)N)c2)NS(=O)(=O)c2cccc(C3CCC(N)=NC3)c2)CC1 (stereo partly drawn) [Inhibitor 47],0.49
16,N=C(N)c1cccc(C[C@H](NS(=O)(=O)c2cccc(NC(=O)CCN)c2)C(=O)N2CCC(C(=O)OCc3ccccc3)CC2)c1 [Inhibitor 48],0.7
17,H-βAla-3-NH-phenyl sulfonyl-Phe(3-Am)-4-piperidyl-(CH2)3—CONH—(CH2)2-PEG10000-CH3 [Inhibitor 50],54
